The results in this text go back to PubChem BioAssay (NCI).

Structures are written as SMILES. “And” between values parts separate entries of the source, which are not always exact repeats. Equal values may be shown once.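 Where inhibition never reached the appropriate level, the endpoint shown equals the highest concentration tested. Otherwise, values were interpolated linearly from a five-concentration, 48-hour dose response in 96-well plates. At the GI50, growth is halved. TGI: concentration producing complete growth inhibition.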 Bounds are passed on as bounds.

Some test systems named below: 786-0 renal; A498 renal; DU-145 prostate; HCC-2998 colon; HS 578T breast; NCI-H23 lung; OVCAR-5 ovarian; SK-MEL-28 melanoma; T-47D breast; UO-31 renal.
Common to all, as to experiment: growth of human tumour cells (NCI), 48 h

As to `O=C(O)C(Cl)Cl`, the GI50 in the assay on 786-0 renal is 5690 µM and > 10000 µM; with A498 renal, 2670 µM and > 10000 µM; in the assay on DU-145 prostate it was 5720 µM and > 10000 µM; with HCC-2998 colon, more than 10000 µM; with HS 578T breast it was 3090 µM and > 10000 µM; with NCI-H23 lung, more than 10000 µM. Moreover, the GI50 with OVCAR-5 ovarian is more than 10000 µM; in the assay with SK-MEL-28 melanoma, 3150 µM and > 10000 µM; in the assay with T-47D breast it was 4100 µM and > 10000 µM; in the assay on UO-31 renal it was 2090 µM and > 6870 µM. Moreover, the TGI in the assay with 786-0 renal, with A498 renal, with DU-145 prostate, with HCC-2998 colon, in the assay on HS 578T breast and with NCI-H23 lung was more than 10000 µM each time. The TGI in the assay on OVCAR-5 ovarian is more than 10000 µM; with SK-MEL-28 melanoma it was more than 10000 µM; in the assay with T-47D breast, more than 10000 µM; with UO-31 renal, 5010 µM and > 9340 µM.

As to `O=C1c2c(F)c(F)c(F)c(F)c2C(=O)N1c1ccc(F)cc1F`, the GI50 in the assay on 786-0 renal was 11 µM; in the assay with A498 renal it was 25.8 µM; with DU-145 prostate it was 8 µM; with HCC-2998 colon, 11.2 µM; in the assay on HS 578T breast, 35.5 µM; with NCI-H23 lung, 3.82 µM. Moreover, the GI50 in the assay with OVCAR-5 ovarian was 12.6 µM; in the assay on SK-MEL-28 melanoma it was 13.4 µM; with T-47D breast it was 19.7 µM; in the assay with UO-31 renal, 10.5 µM. In addition, the TGI is more than 43.8 µM in the assay on 786-0 renal; 55.1 µM with A498 renal; 23.4 µM with DU-145 prostate; 23.2 µM with HCC-2998 colon; more than 100 µM with HS 578T breast; 9.82 µM in the assay on NCI-H23 lung. In addition, the TGI in the assay with OVCAR-5 ovarian is 26.5 µM; in the assay with SK-MEL-28 melanoma, more than 72.4 µM; in the assay with T-47D breast, 46.8 µM; with UO-31 renal, more than 48 µM.

For the compound `COc1cc2c(cc1OC)-c1cc(OC)c(OC)cc1C(CN(C)C)C2` (centres undefined), the GI50 in the assay with 786-0 renal is more than 10 µM; in the assay with A498 renal it was more than 10 µM; in the assay with DU-145 prostate, more than 10 µM; in the assay with HCC-2998 colon it was more than 10 µM; in the assay on HS 578T breast, 7.27 µM; in the assay on NCI-H23 lung, more than 10 µM. The GI50 in the assay on OVCAR-5 ovarian, in the assay with SK-MEL-28 melanoma, in the assay on T-47D breast and in the assay with UO-31 renal was more than 10 µM each time. Further, the TGI in the assay on 786-0 renal, in the assay on A498 renal, in the assay with DU-145 prostate, in the assay with HCC-2998 colon, in the assay on HS 578T breast and in the assay on NCI-H23 lung was more than 10 µM each time. Also, the TGI in the assay on OVCAR-5 ovarian, with SK-MEL-28 melanoma, with T-47D breast and with UO-31 renal was more than 10 µM in each case.

Consider `COc1ccc2ncnc(Nc3ccc(OCc4ccccc4)cc3)c2c1`, for which the GI50 in the assay with 786-0 renal is 4.76 µM; in the assay with A498 renal, 2.14 µM; in the assay on DU-145 prostate, 8.2 µM; with HCC-2998 colon, 6.42 µM; with HS 578T breast it was 10.2 µM; in the assay on NCI-H23 lung, 8.48 µM. Also, the GI50 was 6.57 µM in the assay on OVCAR-5 ovarian, 9.36 µM in the assay on SK-MEL-28 melanoma, 5.37 µM with T-47D breast and 3.62 µM in the assay on UO-31 renal. Further, the TGI in the assay on 786-0 renal was 10.9 µM; with A498 renal, 14.1 µM; with DU-145 prostate, more than 25 µM; in the assay on HCC-2998 colon, 18 µM; in the assay on HS 578T breast, more than 25 µM; in the assay with NCI-H23 lung, more than 25 µM. Moreover, the TGI is more than 22.6 µM in the assay with OVCAR-5 ovarian, more than 25 µM in the assay with SK-MEL-28 melanoma, more than 25 µM in the assay on T-47D breast and more than 17 µM in the assay on UO-31 renal.

Take `COc1ccc(Cn2c(Br)c3c(c2Br)-c2nc(N)sc2CC3)cc1`: the GI50 with 786-0 renal is 5.02 µM; in the assay with A498 renal, 4.66 µM; in the assay with DU-145 prostate, 6.13 µM; in the assay on HCC-2998 colon, 13.3 µM; with HS 578T breast it was 5.61 µM; in the assay on NCI-H23 lung, 10.6 µM. The GI50 with OVCAR-5 ovarian is 16 µM; with SK-MEL-28 melanoma, 4.98 µM; in the assay with T-47D breast, 3.03 µM; in the assay on UO-31 renal, 1.59 µM. Also, the TGI in the assay with 786-0 renal was 28.6 µM; in the assay on A498 renal, 17.3 µM; in the assay on DU-145 prostate it was 39.6 µM; in the assay on HCC-2998 colon it was 28.2 µM; in the assay with HS 578T breast it was more than 100 µM; with NCI-H23 lung it was 38.6 µM. Also, the TGI was 50.5 µM in the assay on OVCAR-5 ovarian, 18.1 µM in the assay on SK-MEL-28 melanoma, 12.8 µM in the assay with T-47D breast and 3.97 µM in the assay on UO-31 renal.

On to `O=C(NC1CCCCC1)NS(=O)(=O)c1ccc(N2N=C3c4ccccc4CC3C2c2ccc(Cl)cc2)cc1` (centres undefined), for which the GI50 with 786-0 renal was 13.3 µM; with DU-145 prostate it was 5.5 µM; in the assay with HCC-2998 colon, 3.56 µM; with HS 578T breast, 4.61 µM; in the assay on NCI-H23 lung, 12.2 µM; with OVCAR-5 ovarian, 25.5 µM. In addition, the GI50 is 29.7 µM with SK-MEL-28 melanoma, 22.6 µM with T-47D breast and 20 µM in the assay on UO-31 renal. In addition, the TGI with 786-0 renal came out at 26.3 µM; in the assay with A498 renal, 9.2 µM; with DU-145 prostate it was 21.1 µM; in the assay on HCC-2998 colon, 7.53 µM; in the assay with HS 578T breast, 37.2 µM; with NCI-H23 lung, 36.2 µM. In addition, the TGI with OVCAR-5 ovarian was 80.4 µM; in the assay on SK-MEL-28 melanoma, more than 100 µM; in the assay on T-47D breast, more than 100 µM; in the assay with UO-31 renal, 40.7 µM.
